Reference: patent US20200261421A1, “HETEROCYCLIC COMPOUNDS AS HIV PROTEASE INHIBITORS” (Merck Sharp & Dohme Corp., priority 2016, published 2020)
pIC50: −log10 of the molar value.

Molecular target: T1, wild-type HIV-1 protease (Human immunodeficiency virus type 1 group M subtype B, UniProt P04585)
T1 construct: Escherichia coli expressed wild-type HIV-1 protease protein; made in house; host or cells: Escherichia coli
Test: Assay for Inhibition of Microbial Expressed HIV Protease
Format: biochemical
Settings: Escherichia coli expressed wild-type HIV-1 protease, peptide substrate cleavage; mean of at least two independent experiments
Protocol: Inhibition of Escherichia coli expressed wild-type HIV-1 protease protein was carried out with a peptide substrate [Val-Ser-Gln-Asn-Wnaphtyl)Ala-Pro-Ile-Val]. The inhibitor compound was preincubated with HIV-1 protease enzyme in assay buffer (50 mM sodium acetate, pH 5.5, 100 mM NaCl, and 0.1% BSA) for 30 minutes at room temperature. Peptide substrate was added to 400 μM in a total volume of 20 μL containing 20 pM HIV-1 protease (final) after which the reaction was incubated for 1 hour at 30° C. The reaction was quenched by the addition of formic acid and HIV protease inhibitor indinavir to 0.012% and 150 nM final concentrations, respectively. Product formation was determined after separation of product and substrate on a ZORBAX Eclipse XDB-C18 column (Aligent Technologies, Santa Clara, Calif., USA) connected to an API 4000™ mass spectrometer (AB Sciex, Pte. Ltd., Concord Ontario, Canada) with multiple reaction monitoring (transitions were 644.5/428.9 and 615.4/422.2 (M1/M3) for product and indinavir respectively). The extent of inhibition of the reaction was determined from the peak area of the products. Analysis of the products, independently synthesized, provided quantitation standards and confirmation of the product composition. […] Ic50's refer to the 50% inhibition of the cleavage of a peptide substrate by hiv protease.
Data shown in the table reflects the mean of at least two independent experiments.

SMILES | pIC50
C[C@H](c1ccc(F)cc1)N(C)C(=O)c1cccc(CN2C(=N)NC(c3ccc(F)cc3)(c3ccc(F)cc3)C2=O)c1 [Example 44, 3-{[4,4-bis(4-fluorophenyl)-2-imino-5-oxoimidazolidin-1-yl]methyl}-N-[(1R)-1-(4-fluorophenyl)ethyl]-N-methylbenzamide] | 7.53
CCCC1(c2ccccc2)NC(=N)N(Cc2cccc(C(=O)N(C)Cc3ccc(F)cc3)c2)C1=O (stereo not shown) [Example 43, N-(4-fluorobenzyl)-3-[(2-imino-5-oxo-4-phenyl-4-propylimidazolidin-1-yl)methyl]-N-methylbenzamide] | 7.54
CN(Cc1ccc(F)cc1)C(=O)c1cccc(CN2C(=N)NC(c3ccccc3)(c3ccccc3)C2=O)c1 [Example 32, N-(4-fluorobenzyl)-3-[(2-imino-5-oxo-4,4-diphenylimidazolidin-1-yl)methyl]-N-methylbenzamide] | 7.71
CN(C)C(=O)c1cccc(C2(c3ccc(F)cc3)NC(=N)N(Cc3cccc(C(=O)N(C)Cc4ccc(Cl)cc4)c3)C2=O)c1 (stereo not shown) [Example 34, 3-[1-{3-[(4-chlorobenzyl)(methyl)-carbamoyl]benzyl}-4-(4-fluorophenyl)-2-imino-5-oxoimidazolidin-4-yl]-N,N-dimethylbenzamide] | 7.70
CN(Cc1ccccc1S(C)(=O)=O)C(=O)c1ccnc(CN2C(=N)NC(c3ccccc3)(c3ccccc3)C2=O)c1 [Example 92, 2-[(2-imino-5-oxo-4,4-diphenylimidazolidin-1-yl)methyl]-N-methyl-N-[2-(methylsulfonyl)benzyl]pyridine-4-carboxamide] | 7.28
CC(C)CCC1(c2ccccc2)NC(=N)N(Cc2cccc(C(=O)N(C)Cc3ccc(Cl)cc3)c2)C1=O (stereo not shown) [Example 26, N-(4-chlorobenzyl)-3-{[2-imino-4-(3-methylbutyl)-5-oxo-4-phenylimidazolidin-1-yl]methyl}-N-methylbenzamide] | 7.86
CN(C)C(=O)c1cccc(CN2C(=N)NC(c3ccc(F)cc3)(c3cccc(-c4cccc(C#N)c4)c3)C2=O)c1 (stereo not shown) [Example 58, 3-{[4-(3'-cyanobiphenyl-3-yl)-4-(4-fluorophenyl)-2-imino-5-oxoimidazolidin-1-yl]methyl}-N,N-dimethylbenzamide] | 7.20
CC(C)CC1(c2ccc(F)cc2)NC(=N)N(Cc2cccc(C(=O)N(C)Cc3ccc(Cl)cc3)c2)C1=O (stereo not shown) [Example 16, N-(4-chlorobenzyl)-3-{[4-(4-fluorophenyl)-2-imino-4-(2-methylpropyl)-5-oxoimidazolidin-1-yl]methyl}-N-methylbenzamide] | 8.04
CC(C)CC1(c2ccccc2)NC(=N)N(Cc2cc(C(=O)N(C)Cc3ccc(Cl)cc3)ccn2)C1=O (stereo not shown) [Example 91, N-(4-chlorobenzyl)-2-{[2-imino-4-(2-methylpropyl)-5-oxo-4-phenylimidazolidin-1-yl]methyl}-N-methylpyridine-4-carboxamide] | 7.47
CN(Cc1ccc(C#N)cc1)C(=O)c1cc(CN2C(=N)NC(c3ccccc3)(c3ccccc3)C2=O)ccc1C(F)(F)F [Example 2, N-(4-cyanobenzyl)-5-[(2-imino-5-oxo-4,4-diphenylimidazolidin-1-yl)methyl]-N-methyl-2-(trifluoromethyl)benzamide] | 7.74
CC(C)CCC1(c2cccc(F)c2)NC(=N)N(Cc2cccc(C(=O)N(C)Cc3ccc(Cl)cc3)c2)C1=O (stereo not shown) [Example 49, N-(4-chlorobenzyl)-3-{[4-(3-fluorophenyl)-2-imino-4-(3-methylbutyl)-5-oxoimidazolidin-1-yl]methyl}-N-methylbenzamide] | 7.36
CN(Cc1ccccc1F)C(=O)c1cccc(CN2C(=N)NC(c3ccc(F)cc3)(c3ccc(F)cc3)C2=O)c1 [Example 65, 3-{[4,4-bis(4-fluorophenyl)-2-imino-5-oxoimidazolidin-1-yl]methyl}-N-(2-fluorobenzyl)-N-methylbenzamide] | 7.05
CN(Cc1cccnc1)C(=O)c1cccc(CN2C(=N)NC(c3ccc(F)cc3)(c3ccc(F)cc3)C2=O)c1 [Example 57, 3-{[4,4-bis(4-fluorophenyl)-2-imino-5-oxoimidazolidin-1-yl]methyl}-N-methyl-N-(pyridin-3-ylmethyl)benzamide] | 7.23
CN(Cc1ccc(Cl)cc1)C(=O)c1cccc(CN2C(=N)NC(c3ccc(F)cc3)(c3ccccn3)C2=O)c1 (stereo not shown) [Example 39, N-(4-chlorobenzyl)-3-{[4-(4-fluorophenyl)-2-imino-5-oxo-4-pyridin-2-ylimidazolidin-1-yl]methyl}-N-methylbenzamide] | 7.61
CC(C)CCC1(c2ccccc2)NC(=N)N(Cc2cccc(C(=O)N(C)Cc3ccc(C#N)cc3)c2)C1=O (stereo not shown) [Example 14, N-(4-cyanobenzyl)-3-{[2-imino-4-(3-methylbutyl)-5-oxo-4-phenylimidazolidin-1-yl]methyl}-N-methylbenzamide] | 8.13
CN(C)C(=O)c1cccc(CN2C(=N)NC(c3ccccc3)(c3ccc(-c4cccc(C#N)c4)cc3)C2=O)c1 (stereo not shown) [Example 54, 3-{[4-(3'-cyanobiphenyl-4-yl)-2-imino-5-oxo-4-phenylimidazolidin-1-yl]methyl}-N,N-dimethylbenzamide] | 7.28
Cc1cc(CN2C(=N)NC(c3ccc(F)cc3)(c3ccc(F)cc3)C2=O)cc(C(=O)N(C)Cc2ccc(F)cc2)n1 [Example 93, 4-{[4,4-bis(4-fluorophenyl)-2-imino-5-oxoimidazolidin-1-yl]methyl}-N-(4-fluorobenzyl)-N,6-dimethylpyridine-2-carboxamide] | 7.49
CC(C)CC1(c2ccccc2)NC(=N)N(Cc2ccc(Cl)c(C(=O)NCc3cnccn3)c2)C1=O (stereo not shown) [Example 75, 2-chloro-5-{[2-imino-4-(2-methylpropyl)-5-oxo-4-phenylimidazolidin-1-yl]methyl}-N-(pyrazin-2-ylmethyl)benzamide] | 7.50
CC(C)CCC1(c2ccccc2)NC(=N)N(Cc2ccc(C(F)(F)F)c(C(=O)NCC(F)F)c2)C1=O (stereo not shown) [Example 10, N-(2,2-difluoroethyl)-5-{[2-imino-4-(3-methylbutyl)-5-oxo-4-phenylimidazolidin-1-yl]methyl}-2-(trifluoromethyl)benzamide] | 7.04
CC(C)CC1(c2ccccc2)NC(=N)N(Cc2cncc(C(=O)N(C)Cc3ccc(C#N)cc3)c2)C1=O (stereo not shown) [Example 84, N-(4-cyanobenzyl)-5-{[2-imino-4-(2-methylpropyl)-5-oxo-4-phenylimidazolidin-1-yl]methyl}-N-methylpyridine-3-carboxamide] | 7.03
CN(Cc1ccc(F)cc1)C(=O)c1csc(CN2C(=N)NC(c3ccccc3)(c3ccccc3)C2=O)n1 [Example 95, N-(4-fluorobenzyl)-2-[(2-imino-5-oxo-4,4-diphenylimidazolidin-1-yl)methyl]-N-methyl-1,3-thiazole-4-carboxamide] | 7.52
CN(Cc1cccc(S(C)(=O)=O)c1)C(=O)c1cccc(CN2C(=N)NC(c3ccc(F)cc3)(c3ccc(F)cc3)C2=O)c1 [Example 60, 3-{[4,4-bis(4-fluorophenyl)-2-imino-5-oxoimidazolidin-1-yl]methyl}-N-methyl-N-[3-(methylsulfonyl)benzyl]benzamide] | 7.16
CC(C)CC1(c2ccccc2)NC(=N)N(Cc2ccc(C(F)(F)F)c(C(=O)NCc3ccc(C#N)cc3)c2)C1=O (stereo not shown) [Example 1, N-(4-cyanobenzyl)-5-{[2-imino-4-(2-methylpropyl)-5-oxo-4-phenylimidazolidin-1-yl]methyl}-2-(trifluoromethyl)benzamide] | 7.80
N=C1NC(c2ccccc2)(c2ccccc2)C(=O)N1Cc1ccc(C(F)(F)F)c(C(=O)NCc2ccccc2OC(F)F)c1 [Example 7, N-[2-(difluoromethoxy)benzyl]-5-[(2-imino-5-oxo-4,4-diphenylimidazolidin-1-yl)methyl]-2-(trifluoromethyl)benzamide] | 7.28
CC(C)CCC1(c2ccc(F)cc2)NC(=N)N(Cc2cccc(C(=O)N(C)Cc3ccc(Cl)cc3)c2)C1=O (stereo not shown) [Example 22, N-(4-chlorobenzyl)-3-{[4-(4-fluorophenyl)-2-imino-4-(3-methylbutyl)-5-oxoimidazolidin-1-yl]methyl}-N-methylbenzamide] | 7.89
CN(Cc1ccnc(Cl)c1)C(=O)c1cccc(CN2C(=N)NC(c3ccc(F)cc3)(c3ccc(F)cc3)C2=O)c1 [Example 38, 3-{[4,4-bis(4-fluorophenyl)-2-imino-5-oxoimidazolidin-1-yl]methyl}-N-[(2-chloropyridin-4-yl)methyl]-N-methylbenzamide] | 7.62
CN(Cc1ccccc1S(C)(=O)=O)C(=O)c1cc(CN2C(=N)NC(c3ccccc3)(c3ccccc3)C2=O)ccc1C(F)(F)F [Example 3, 5-[(2-imino-5-oxo-4,4-diphenylimidazolidin-1-yl)methyl]-N-methyl-N-[2-(methylsulfonyl)benzyl]-2-(trifluoromethyl)benzamide] | 7.65
CC(C)CCC1(c2ccccc2)NC(=N)N(Cc2cc(C(=O)N(C)Cc3ccc(C#N)cc3)ccn2)C1=O (stereo not shown) [Example 88, N-(4-cyanobenzyl)-2-{[2-imino-4-(3-methylbutyl)-5-oxo-4-phenylimidazolidin-1-yl]methyl}-N-methylpyridine-4-carboxamide] | 7.77
